The source of these data is patent US8889704B2 (Array BioPharma Inc., priority 2011, dated 2014).

Holding throughout (type): biochemical
The target in test [1] is PIM-1 (Homo sapiens, UniProt P11309). Description: Enzyme PIM-1 Assay ([33P]ATP incorporation into PIM2tide, filter plate). As to conditions: averaged IC50; 35 μM ATP, 7.5 μM PIM2tide, 0.25 nM PIM-1, 60 min at 22° C. The gist of the method: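 Radiometric assay: 0.25 nM PIM-1 phosphorylates 7.5 μM PIM2tide with 35 μM [γ-33P]ATP in 20 mM MOPS pH 7.4, 10 mM MgCl2, 1 mM DTT, 0.005% Tween-20, 60 min at 22 °C. Product captured on P81 filters, scintillation counted; 10-point 3-fold curve from 10 μM top, 2% DMSO, IC50 by 4-parameter logistic fit of POC.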
Sequence of PIM-1 (P11309 whole entry, species assumed): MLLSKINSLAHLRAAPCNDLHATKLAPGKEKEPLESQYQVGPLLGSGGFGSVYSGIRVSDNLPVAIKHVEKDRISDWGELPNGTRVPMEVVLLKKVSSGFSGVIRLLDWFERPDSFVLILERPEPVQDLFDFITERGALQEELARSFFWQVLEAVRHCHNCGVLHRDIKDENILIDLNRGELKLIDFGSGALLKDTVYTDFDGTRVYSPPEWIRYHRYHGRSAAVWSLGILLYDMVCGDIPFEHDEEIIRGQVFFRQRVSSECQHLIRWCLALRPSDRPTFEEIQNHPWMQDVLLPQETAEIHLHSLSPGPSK

In test [2] the target is T1, GST-tagged recombinant full-length human Pim-2 (Homo sapiens, UniProt Q9P1W9).
T1 construct: GST-tagged recombinant full-length human Pim-2; GST
T1 sequence (Q9P1W9 whole entry): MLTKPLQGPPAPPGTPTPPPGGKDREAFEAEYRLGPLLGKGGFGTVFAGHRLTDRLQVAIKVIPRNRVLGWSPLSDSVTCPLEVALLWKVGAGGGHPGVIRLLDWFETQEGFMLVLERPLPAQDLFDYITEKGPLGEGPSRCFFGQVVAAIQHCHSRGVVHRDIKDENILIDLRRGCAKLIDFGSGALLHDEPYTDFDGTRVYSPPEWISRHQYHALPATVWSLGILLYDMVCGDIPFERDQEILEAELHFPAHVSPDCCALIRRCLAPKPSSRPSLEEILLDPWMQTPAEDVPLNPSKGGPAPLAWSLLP
Description: PIM-2 Assay (as Example A). The note with it: averaged IC50; 4 μM ATP, 1.0 μM PIM2tide, 1.5 nM Pim-2. The essentials:
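Radiometric filter-binding assay: GST-tagged full-length human Pim-2 (1.5 nM) phosphorylates 1.0 μM PIM2tide with 4 μM [γ-33P]ATP for 60 min at 22 °C in pH 7.4 MOPS buffer, 2% DMSO. 10-point 3-fold dilutions from 10 μM top dose; IC50 from 4-parameter fit of percent of control.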

Test [3] deals with recombinant rat PIM-3 (Rattus norvegicus, UniProt O70444). Put plainly: PIM-3 Assay (as Example A). As to conditions: averaged IC50; 30 μM ATP, 3.75 μM PIM2tide, 0.5 nM PIM-3. The essentials: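 Recombinant rat PIM-3 (0.5 nM) with 3.75 μM PIM2tide and 30 μM [γ-33P]ATP in MOPS pH 7.4 buffer, 60 min at 22 °C; labelled peptide captured on phosphocellulose filters and counted by scintillation. 10-point curve (top dose 10 μM, 2% DMSO); IC50 from 4-parameter fit of percent of control.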

pIC50: −log10 of the molar value. Where a name gives a salt, the structure may show the parent alone.

By pIC50 is commonly meant the IC50 on a negative log10 scale, so that one unit is a factor of ten.

On to `CC(C)Oc1ccc2ccc(-c3nnc4ccc([C@@H](N5CC[C@H](N)C5)C(F)(F)F)cn34)nc2c1` [Example 142, (S)-1-((R)-2,2,2-trifluoro-1-(3-(7-isopropoxyquinolin-2-yl)-[1,2,4]triazolo[4,3-a]pyridin-6-yl)ethyl)pyrrolidin-3-amine dihydrochloride], for which the results for the pIC50 in test [1], in test [2] and in test [3] were 10.05, 7.36 and 9.30, respectively.

With `COc1ccc2ccc(-c3nnc4ccc([C@@H](N5CC[C@H](N)C5)C(F)(F)F)cn34)nc2c1C1CC1` [Example 143, (S)-1-((R)-1-(3-(8-cyclopropyl-7-methoxyquinolin-2-yl)-[1,2,4]triazolo[4,3-a]pyridin-6-yl)-2,2,2-trifluoroethyl)pyrrolidin-3-amine dihydrochloride], the pIC50 in test [1] was 10.05; in test [2], 7.42; in test [3] it was 9.30.

On to `CC1Cc2c(ccc3ccc(-c4nnc5ccc([C@@H](N6CC[C@H](N)C6)C(F)(F)F)cn45)nc23)O1` (stereo partly drawn) [Example 144, (3S)-1-((1R)-2,2,2-trifluoro-1-(3-(8-methyl-8,9-dihydrofuro[2,3-h]quinolin-2-yl)-[1,2,4]triazolo[4,3-a]pyridin-6-yl)ethyl)pyrrolidin-3-amine dihydrochloride], for which the values for the pIC50 in test [1], in test [2] and in test [3] were 9.02, 7.32 and 9.00, respectively.

Take `CC(C)(C)c1cccc2ccc(-c3nnc4ccc([C@@H](N5C[C@@H](N)[C@H](O)C5)C(F)(F)F)cn34)nc12` [Example 145, (3R,4R)-4-amino-1-((R)-1-(3-(8-tert-butylquinolin-2-yl)-[1,2,4]triazolo[4,3-a]pyridin-6-yl)-2,2,2-trifluoroethyl)pyrrolidin-3-ol dihydrochloride]: the negative logarithm of the IC50 (pIC50) was 9.60 in test [1], 7.52 in test [2] and 9.15 in test [3].

As to `CC(C)Oc1cccc2ccc(-c3nnc4ccc([C@@H](N5C[C@@H](N)[C@H](O)C5)C(F)(F)F)cn34)nc12` [Example 146, (3R,4R)-4-amino-1-((R)-2,2,2-trifluoro-1-(3-(8-isopropoxyquinolin-2-yl)-[1,2,4]triazolo[4,3-a]pyridin-6-yl)ethyl)pyrrolidin-3-ol dihydrochloride], the pIC50 was 9.89 in test [1], 7.47 in test [2] and 9.52 in test [3].

Turning to `CC(C)Oc1cc(F)cc2ccc(-c3nnc4ccc([C@@H](N5C[C@@H](N)[C@H](O)C5)C(F)(F)F)cn34)nc12` [Example 147, (3R,4R)-4-amino-1-((R)-2,2,2-trifluoro-1-(3-(6-fluoro-8-isopropoxyquinolin-2-yl)-[1,2,4]triazolo[4,3-a]pyridin-6-yl)ethyl)pyrrolidin-3-ol dihydrochloride], the pIC50 was 9.96 in test [1], 7.44 in test [2] and 9.52 in test [3].

In the case of `COCCOc1ccc2ccc(-c3nnc4ccc([C@@H](N5CC[C@H](N)C5)C(F)(F)F)cn34)nc2c1` [Example 148, (S)-1-((R)-2,2,2-trifluoro-1-(3-(7-(2-methoxyethoxy)quinolin-2-yl)-[1,2,4]triazolo[4,3-a]pyridin-6-yl)ethyl)pyrrolidin-3-amine dihydrochloride], the values for the pIC50 in test [1], in test [2] and in test [3] were 9.47, < 7.00 and 8.92, respectively.

As to `COC[C@@H](C)Oc1ccc2ccc(-c3nnc4ccc([C@@H](N5CC[C@H](N)C5)C(F)(F)F)cn34)nc2c1` [Example 149, (S)-1-((R)-2,2,2-trifluoro-1-(3-(7-((R)-1-methoxypropan-2-yloxy)quinolin-2-yl)-[1,2,4]triazolo[4,3-a]pyridin-6-yl)ethyl)pyrrolidin-3-amine dihydrochloride], the pIC50 is 9.77 in test [1], < 7.00 in test [2] and 9.15 in test [3].
